Tests used:
BaF3 = assay: Antiproliferative activity against mouse BaF3 cells expressing EML4-ALK fusion incubated for 48 hrs by CCK8 assay; conditions: baf3
NCI-H2228 = assay: Antiproliferative activity against human NCI-H2228 cells expressing EML4-ALK fusion incubated for 48 hrs by CCK8 assay; conditions: nci-h2228
[1] = Antiproliferative activity against human NCI-H1975 cells expressing EGFR mutation incubated for 48 hrs by CCK8 assay; conditions: nci-h1975
NCI-H522 = assay: Antiproliferative activity against human NCI-H522 cells expressing wild-type EGFR/ALK incubated for 48 hrs by CCK8 assay; conditions: nci-h522
[2] = Antiproliferative activity against human HLF1 cells incubated for 48 hrs by CCK8 assay; format: toxicity, cell-based; conditions: hlf1, 48 h
[3] = Antiproliferative activity against human THLE-3 cells incubated for 48 hrs by CCK8 assay; format: toxicity, cell-based; conditions: thle-3, 48 h
HK-2 = assay: Antiproliferative activity against human HK-2 cells incubated for 48 hrs by CCK8 assay; format: toxicity, cell-based; conditions: hk-2, 48 h
L02 = assay: Antiproliferative activity against human L02 cells incubated for 48 hrs by CCK8 assay; format: toxicity, cell-based; conditions: l02, 48 h
NCI-H1975 [4] = assay: Induction of cell cycle arrest in human NCI-H1975 cells assessed as accumulation at G0/G1 phase at 1 nM incubated for 24 hrs by PI/RNase staining based flow cytometry (reference value: 50.19 %); format: functional
NCI-H1975 [5] = assay: Induction of cell cycle arrest in human NCI-H1975 cells assessed as accumulation at S phase at 1 nM incubated for 24 hrs by PI/RNase staining based flow cytometry (reference value: 17.1 %); format: functional
NCI-H1975 [6] = assay: Induction of cell cycle arrest in human NCI-H1975 cells assessed as accumulation at G2/M phase at 1 nM incubated for 24 hrs by PI/RNase staining based flow cytometry (reference value: 32.71 %); format: functional
NCI-H1975 [7] = assay: Induction of cell cycle arrest in human NCI-H1975 cells assessed as accumulation at G0/G1 phase at 5 nM incubated for 24 hrs by PI/RNase staining based flow cytometry (reference value: 50.19 %); format: functional
NCI-H1975 [8] = assay: Induction of cell cycle arrest in human NCI-H1975 cells assessed as accumulation at S phase at 5 nM incubated for 24 hrs by PI/RNase staining based flow cytometry (reference value: 17.1 %); format: functional
NCI-H1975 [9] = assay: Induction of cell cycle arrest in human NCI-H1975 cells assessed as accumulation at G2/M phase at 5 nM incubated for 24 hrs by PI/RNase staining based flow cytometry (reference value: 32.71 %); format: functional
NCI-H1975 [10] = assay: Induction of cell cycle arrest in human NCI-H1975 cells assessed as accumulation at G0/G1 phase at 10 nM incubated for 24 hrs by PI/RNase staining based flow cytometry (reference value: 50.19 %); format: functional
NCI-H1975 [11] = assay: Induction of cell cycle arrest in human NCI-H1975 cells assessed as accumulation at S phase at 10 nM incubated for 24 hrs by PI/RNase staining based flow cytometry (reference value: 17.1 %); format: functional
NCI-H1975 [12] = assay: Induction of cell cycle arrest in human NCI-H1975 cells assessed as accumulation at G2/M phase at 10 nM incubated for 24 hrs by PI/RNase staining based flow cytometry (reference value: 32.71 %); format: functional
NCI-H1975 [13] = assay: Induction of apoptosis in human NCI-H1975 cells assessed as viable cells at 1 nM incubated for 48 hrs by allo-Phycocyanin-Annexin V staining based flow cytometry (reference value: 93.6 %); format: functional; conditions: read-out: Activity
NCI-H1975 [14] = assay: Induction of apoptosis in human NCI-H1975 cells assessed as early apoptotic cells at 1 nM incubated for 48 hrs by allo-Phycocyanin-Annexin V staining based flow cytometry (reference value: 2.27 %); format: functional
NCI-H1975 [15] = assay: Induction of apoptosis in human NCI-H1975 cells assessed as late apoptotic cells at 1 nM incubated for 48 hrs by allo-Phycocyanin-Annexin V staining based flow cytometry (reference value: 4.08 %); format: functional
NCI-H1975 [16] = assay: Induction of apoptosis in human NCI-H1975 cells assessed as necrotic cells at 1 nM incubated for 48 hrs by allo-Phycocyanin-Annexin V staining based flow cytometry (reference value: 0.031 %); format: functional
NCI-H1975 [17] = assay: Induction of apoptosis in human NCI-H1975 cells assessed as viable cells at 5 nM incubated for 48 hrs by allo-Phycocyanin-Annexin V staining based flow cytometry (reference value: 93.6 %); format: functional; conditions: Homo sapiens, NCI-H1975, read-out: Activity
NCI-H1975 [18] = assay: Induction of apoptosis in human NCI-H1975 cells assessed as early apoptotic cells at 5 nM incubated for 48 hrs by allo-Phycocyanin-Annexin V staining based flow cytometry (reference value: 2.27 %); format: functional
NCI-H1975 [19] = assay: Induction of apoptosis in human NCI-H1975 cells assessed as late apoptotic cells at 5 nM incubated for 48 hrs by allo-Phycocyanin-Annexin V staining based flow cytometry (reference value: 4.08 %); format: functional
NCI-H1975 [20] = assay: Induction of apoptosis in human NCI-H1975 cells assessed as necrotic cells at 5 nM incubated for 48 hrs by allo-Phycocyanin-Annexin V staining based flow cytometry (reference value: 0.031 %); format: functional
NCI-H1975 [21] = assay: Induction of apoptosis in human NCI-H1975 cells assessed as viable cells at 10 nM incubated for 48 hrs by allo-Phycocyanin-Annexin V staining based flow cytometry (reference value: 93.6 %); format: functional; conditions: read-out: Activity
NCI-H1975 [22] = assay: Induction of apoptosis in human NCI-H1975 cells assessed as early apoptotic cells at 10 nM incubated for 48 hrs by allo-Phycocyanin-Annexin V staining based flow cytometry (reference value: 2.27 %); format: functional
NCI-H1975 [23] = assay: Induction of apoptosis in human NCI-H1975 cells assessed as late apoptotic cells at 10 nM incubated for 48 hrs by allo-Phycocyanin-Annexin V staining based flow cytometry (reference value: 4.08 %); format: functional
NCI-H1975 [24] = assay: Induction of apoptosis in human NCI-H1975 cells assessed as necrotic cells at 10 nM incubated for 48 hrs by allo-Phycocyanin-Annexin V staining based flow cytometry (reference value: 0.031 %); format: functional
[25] = Cmax in Sprague-Dawley rat at 10 mg/kg, po; format: ADME, organism-based; conditions: in vivo
[26] = Tmax in Sprague-Dawley rat at 10 mg/kg, po; format: ADME, organism-based; conditions: in vivo
[27] = Half life in Sprague-Dawley rat at 10 mg/kg, po; format: ADME, organism-based; conditions: in vivo
[28] = MRT (0 to t) in Sprague-Dawley rat at 10 mg/kg, po; format: ADME, organism-based; conditions: in vivo
[29] = Oral bioavailability in Sprague-Dawley rat at 10 mg/kg; format: ADME, organism-based; conditions: in vivo
[30] = Tmax in Sprague-Dawley rat at 1 mg/kg, iv; format: ADME, organism-based; conditions: in vivo
[31] = Half life in Sprague-Dawley rat at 1 mg/kg, iv; format: ADME, organism-based; conditions: in vivo
[32] = Apparent volume of distribution during terminal phase in Sprague-Dawley rat at 1 mg/kg, iv; format: ADME, organism-based; conditions: in vivo
[33] = Apparent oral clearance in Sprague-Dawley rat at 1 mg/kg, iv; format: ADME, organism-based; conditions: in vivo
NCI-H1975 [34] = assay: Antitumor activity against human NCI-H1975 cells xenografted in BALB/c-nu mouse at 5 mg/kg, po administered daily orally for 21 days relative to control; format: functional; conditions: Mus musculus, NCI-H1975, po, 504 h, time 21 day, read-out: TGI
NCI-H1975 [35] = assay: Antitumor activity against human NCI-H1975 cells xenografted in BALB/c-nu mouse at 15 mg/kg, po administered daily orally for 21 days relative to control; format: functional; conditions: Mus musculus, NCI-H1975, po, 504 h, time 21 day, read-out: TGI
NCI-H1975 [36] = assay: Antitumor activity against human NCI-H1975 cells xenografted in BALB/c-nu mouse at 30 mg/kg, po administered daily orally for 21 days relative to control; format: functional; conditions: Mus musculus, NCI-H1975, po, 504 h, time 21 day, read-out: TGI

Question: Which IC50 (BaF3) does the source give for [2H]C([2H])([2H])C([2H])([2H])[S+]([O-])c1ccccc1Nc1nc(Nc2cc(NC(=O)C=C)c(N(C)CCN(C)C)cc2OC)ncc1Cl (single isomer, unassigned; (-)) here?
Answer: 2.4 nM

Question: And the IC50 (NCI-H2228)?
Answer: 21.5 nM

Question: And the IC50 [1]?
Answer: 1.08 nM

Question: And the IC50 (NCI-H522)?
Answer: 1960 nM

Question: What about the Activity [2] of the same compound?
Answer: Non-toxic

Question: What about the Activity [3] of the same compound?
Answer: Non-toxic

Question: And the Activity (HK-2)?
Answer: Non-toxic

Question: What about the Activity (L02) of the same compound?
Answer: Non-toxic

Question: And the Activity (NCI-H1975 [4])?
Answer: 64.57%

Question: What about the Activity (NCI-H1975 [5]) of the same compound?
Answer: 12.5%

Question: And the Activity (NCI-H1975 [6])?
Answer: 22.93%

Question: And the Activity (NCI-H1975 [7])?
Answer: 67.31%

Question: What about the Activity (NCI-H1975 [8]) of the same compound?
Answer: 3.78%

Question: And the Activity (NCI-H1975 [9])?
Answer: 28.91%

Question: What about the Activity (NCI-H1975 [10]) of the same compound?
Answer: 68.32%

Question: And the Activity (NCI-H1975 [11])?
Answer: 3.84%

Question: And the Activity (NCI-H1975 [12])?
Answer: 28.2%

Question: What about the viability at 0.001 µM (NCI-H1975 [13]) of the same compound?
Answer: 75.4%

Question: And the Activity (NCI-H1975 [14])?
Answer: 16.6%

Question: What about the Activity (NCI-H1975 [15]) of the same compound?
Answer: 7.98%

Question: And the Activity (NCI-H1975 [16])?
Answer: 0.071%

Question: What about the viability at 0.005 µM (NCI-H1975 [17]) of the same compound?
Answer: 62.8%

Question: What about the Activity (NCI-H1975 [18]) of the same compound?
Answer: 22.8%

Question: What about the Activity (NCI-H1975 [19]) of the same compound?
Answer: 14.3%

Question: And the Activity (NCI-H1975 [20])?
Answer: 0.16%

Question: And the viability at 0.01 µM (NCI-H1975 [21])?
Answer: 46.8%

Question: What about the Activity (NCI-H1975 [22]) of the same compound?
Answer: 32.5%

Question: What about the Activity (NCI-H1975 [23]) of the same compound?
Answer: 20.5%

Question: And the Activity (NCI-H1975 [24])?
Answer: 0.22%

Question: What about the Cmax [25] of the same compound?
Answer: 169 ng/mL

Question: And the Tmax [26]?
Answer: 0.5 h

Question: And the half-life [27]?
Answer: 4.65 h

Question: And the MRT last [28]?
Answer: 3.57 h

Question: And the bioavailability [29]?
Answer: 44.1%

Question: What about the Tmax [30] of the same compound?
Answer: 1.98 min

Question: What about the half-life [31] of the same compound?
Answer: 1.06 h

Question: And the Vz/F [32]?
Answer: 5.9 L/kg

Question: What about the CL/F [33] of the same compound?
Answer: 63.7 mL/min/kg

Question: What about the inhibition in vivo at 5 mg/kg (NCI-H1975 [34]) of the same compound?
Answer: 80.3%

Question: And the inhibition in vivo at 15 mg/kg (NCI-H1975 [35])?
Answer: 93.2%

Question: And the inhibition in vivo at 30 mg/kg (NCI-H1975 [36])?
Answer: 97.2%
